Earlier results as cited in patent US7655259B2, “Delayed release carnitine” (SIGMA-TAU Industrie Farmaceutiche Riunite S.p.A, priority 1993, dated 2010).

Legend:
[1] = given orally, carnitine deficient patients
[2] = in the human

Row | conversion to L-carnitine [1] | Structure (SMILES) | half-life [2]
1 | readily converted to L-carnitine | C[N+](C)(C)CCCC(=O)[O-] [GBB, Gamma-butyrobetaine] | 
2 |  | C[N+](C)(C)CC(O)CC(=O)[O-] [L-carnitine, 3-hydroxy-4-(trimethylamino-)butyrate] | approximately 30 minutes
